The record followed here is patent US8084602B2, “Porphyrin derivatives and their use in photodynamic therapy” (Destiny Pharma Limited, priority 2002, dated 2011).

The test system of data set [1] is S. aureus ATCC BAA-44 (a methicillin resistant S. aureus). The data set can be described thus: Cell survival (colony forming unit) with or without illumination. It counts as cell-based, Staphylococcus aureus. Particulars: S. aureus. Here is the method:
(§1) The toxic effects of exemplary compounds of the invention against two bacterial strains, the Gram negative bacterium Escherichia coli (strain ATCC 25922) and the Gram positive bacterium Staphylococcus aureus (methicillin-resistant strain ATTC BAA-44), were evaluated by measuring the extent of growth inhibition (bacteriostatic effect) and growth […] (cytocidal effect) in the dark and upon light exposure. Initial compound screening was undertaken using white light [390-740 nm] (150 mW/cm^2) for various timepoints of a concentration of 3 μM (see Table 1). Further experiments were undertaken on those compounds identified from this initial screen using a light source emitting light at a wavelength between 417-420 nm at 15.2 mW/cm^2, 13.68 J/cm^2 (Waldmann Eclairage SA, France) (see Table 20.
(§2) For the further investigation of the exemplary compounds (Table 2), the following protocol was adopted: • (i) Bacteria (S. aureus BAA-44 and E. coli 25922) were grown in brain heart infusion (BHI) broth until they reached the stationary phase of growth. • (ii) The cells were harvested by centrifugation (3000 g for 15 min) with a table centrifuge, washed with 10 mM PBS at pH 7.4 containing 2.7 mM KCl and 0.14 M NaCl and suspended in PBS at an optical density of 0.7 at 650 nm corresponding to 10^8-10^9 cells/ml. • (iii) The bacteria, at the desired cell density (˜10^8 cells/ml) were incubated for 5 min in the dark with various concentrations of the exemplary compounds. • (iv) At the end of the incubation period the cells were washed three times with PBS, suspended in PBS, transferred into a 96-well microtitre plate (200 μl/well) and illuminated for 15 min with the Waldmann light source (15.2 mW/cm^2; 13.7 J/cm^2). The cells were illuminated from the bottom of the plate laying it on the glass cover of the lamp. • (v) After illumination, cell survival was determined by plating serially diluted aliquots of treated and untreated (i.e. no exemplary compound or light present) cells onto brain heart agar (BHA) and counting the number of colonies after 18-24 h incubation at 37° C.
(§3) the above colony forming unit (CFU) protocol was also used to investigate the photodynamic activity of very low concentrations of the compounds of the invention.

For data set [2], the system named is bacterial cells compared to human skin cells. The data set can be described thus: Selectivity for bacteria compared to human skin cells. It counts as cell-based. On the procedure: as §2
(§4) Test compounds were screened for toxicity against cultured human skin cells using normal human epidermal keratinocytes (NHEK) and normal human dermal fibroblasts (NHDF), purchased from CellSystems Biotechnologie GmbH, Germany.
The NHEK and NHDF cells were used between passages 3 and 10. The cells were seeded with 7.5 and/or 15×10^4 cells/well (microtitreplate) and allowed to attach overnight in an incubator (37° C., 5% CO2). After incubation with different concentrations of the selected photosensitisers, the cells were illuminated for fifteen minutes (Light source 236, Waldmann; 15.2 mW/cm^2, 13.7 J/cm^2) and then incubated for 24 hours in the dark.
(§5) Phototoxicity was tested by standard MTT-assay (Mossman et al., 1983, Immunological Methods 65:55-63). MTT is an indicator of metabolically active cells. Dependent on enzyme activity in mitochondria a colour reaction can be visualised, which can be measured by ELISA reader (540 nm). The cell viability data were normalised, i.e. the OD values of cells after PDT without photosensitisers were adjusted to one. Each experiment was repeated three times.

Data set [3] relates to normal human epidermal keratinocytes (NHEK). The data set can be described thus: Toxicity against human skin cells, MTT-assay. It counts as cell-based. Here is the method: as §4
(§6) The NHEK and NHDF cells were used between passages 3 and 10. The cells were seeded with 7.5 and/or 15×10^4 cells/well (microtitreplate) and allowed to attach overnight in an incubator (37° C., 5% CO2). […]
as §5
(Tetrazolium dyes change colour on reduction, which living cells bring about.)

The test system of data set [4] is normal human dermal fibroblasts (NHDF). The data set can be described thus: Toxicity against human skin cells, MTT-assay. The format is cell-based. On the procedure: as §4, §6, §5
Data set [5] relates to E. coli ATCC 25922. The data set can be described thus: Cell survival (colony forming unit) with or without illumination. It counts as cell-based, Escherichia coli. Conditions: E. coli. On the procedure: as §1, §2, §3
A short description of data set [6]: Chemical stability, qualitative stress tests (HPLC, LC-MS). Conditions: solid, aqueous solution and PBS; 7 days each at 50° C., 70° C., 90° C. It counts as physicochemical. Here is the method: The following HPLC methodology was established for the analysis of the exemplary compounds of the invention.
The method involves detection by UV at a wavelength of 420 nm, which is very specific for these compounds. In order to monitor impurities not related to the porphyrin structure (and therefore not absorbing at 420 nm) UV spectra of the whole chromatograms were also recorded between 200 nm and 700 nm by DAD (diode array detector) in certain experiments.
Qualitative stress tests were undertaken on the exemplary compounds of the invention. Analysis was undertaken by HPLC & LC-MS. The compounds were stress tested in solid form, in an aqueous solution and a solution made up in phosphate-buffered saline buffer. The samples were initially incubated for 7 days at 50° C. and a sample removed for testing. The samples were then incubated for a further 7 days at 70° C., samples removed as before and the samples incubated further for 7 days at 90° C. HPLC analysis of freshly prepared solutions was undertaken and compared to the samples after 7, 14 and 21 days incubation. A visual comparison of the chromatograms was then undertaken and the content of the main products and by-products as area percentage values determined (see FIG. 11).

[7] abbreviates: photodynamic activity, 0.1 μM, illumination 15 min.
The mark [8] stands for this setting: photodynamic activity, 1 μM, illumination 15 min.
Where [9] appears, read: dark toxicity, 1 μM, no illumination.
Where [10] appears, read: dark toxicity, 10 μM, no illumination.
Setting [11] is: photodynamic activity (light toxicity), 0.01 μM, illumination 15 min.
Setting [12] is: photodynamic activity (light toxicity), 0.1 μM, illumination 15 min.
Where [13] appears, read: photodynamic activity (light toxicity), 1 μM, illumination 15 min.
Where [14] appears, read: dark toxicity (no illumination), 1 μM.

Some results are limits rather than exact numbers.

`C[N+](C)(C)CCCOc1ccc(-c2c3nc(c(-c4ccc(OCCC[N+](C)(C)C)cc4)c4ccc([nH]4)c(-c4ccc(OCCC[N+](C)(C)C)cc4)c4nc(c(-c5ccc(OCCC[N+](C)(C)C)cc5)c5ccc2[nH]5)C=C4)C=C3)cc1.[Cl-].[Cl-].[Cl-].[Cl-]` [Compound 1, 5,10,15,20-tetrakis-[4-(3-Trimethylammonio-propyloxy)-phenyl]-porphyrin tetrachloride, reference compound]: the Log reduction in data set [1] (dark toxicity (no illumination), 10 μM) was <1 (<10^−1); in data set [1] (setting [7]) it was <1 (<10^−1); in data set [1] (setting [8]) it was >6 (>10^−6). Also, the “toxicity to bacterial cells compared to human cells” value in data set [2] is “equal toxicity to bacterial and human cells”. In addition, the Survival amounted to 100% in data set [3] (setting [9]); 83% in data set [3] (setting [10]); 94% in data set [3] (setting [11]); 52% in data set [3] (setting [12]); 0.4% in data set [3] (setting [13]); 100% in data set [4] (setting [9]). Moreover, the Survival in data set [4] (setting [10]) stood at 92%; in data set [4] (setting [11]) it was 100%; in data set [4] (setting [12]), 39%; in data set [4] (setting [13]) it was 2%.
For the compound `C[N+](C)(C)CCCOc1cccc(-c2c3nc(cc4ccc([nH]4)c(-c4cccc(OCCC[N+](C)(C)C)c4)c4nc(cc5ccc2[nH]5)C=C4)C=C3)c1.[Cl-].[Cl-]` [Compound 12, 5,15-bis-[3-(3-trimethylammonio-propyloxy)-phenyl]-porphyrin dichloride], the Log reduction in data set [5] (setting [14]) is on record as <1 (<10^−1); in data set [5] (photodynamic activity, 0.5 μM, illumination 15 min) it was <1 (<10^−1); in data set [5] (setting [8]), >6 (>10^−6); in data set [1] (setting [14]), <1 (<10^−1); in data set [1] (photodynamic activity, 0.005 μM, illumination 15 min), <2 (<10^−2); in data set [1] (setting [7]), >3 (>10^−3). In addition, the Log reduction in data set [1] (setting [8]) is recorded as >6 (>10^−6). Further, in data set [2] (at a dose of 0.1 μM), the “toxicity to bacterial cells compared to human skin cells” value is “preferentially toxic to bacterial cells compared to human skin cells”. Also, in data set [6], the “chemical stability under stress test” value is “good stability”. Besides, the Survival in data set [3] (setting [9]) was 100%; in data set [3] (setting [10]), 92%; in data set [3] (setting [11]), 97%; in data set [3] (setting [12]) it was 75%; in data set [3] (setting [13]), 0.5%; in data set [4] (setting [9]) it was 100%. The Survival in data set [4] (setting [10]) is on record as 95%; in data set [4] (setting [11]), 100%; in data set [4] (setting [12]), 85%; in data set [4] (setting [13]) it was 1.0%.
